Ends that are not written are not given here.
Biological target: T1, GST-SURF4^49-60 (Homo sapiens, UniProt O15260)
T1 construct: SURF4 (49-60) in the same buffer was in the calorimetric cell; made in house; host or cells: Escherichia coli
Assay: Isothermal titration calorimetry, CW peptide vs GST-SURF4(49-60)
Format: binding
Conditions: ITC (PEAQ-ITC); 500 µM CW peptide into 50 µM GST-SURF4 (49-60); 10 mM PBS, 0.5 mM HEPES, 6.3 mM sorbitol, 1.75 mM KOAc, 25 µM Mg(OAc)2, 25 µM BSA, 0.003% Triton, pH 7.2; one set of site model; read-out: Kd of CW peptides for GST-SURF4^49-60
From the text: To measure a direct interaction, we immobilized the first luminal loop of SURF4 (SEQRDYIDTTWNC, referred to as SURF4 luminal peptides) on beads and then performed pull down analysis using purified GST and Shh^25-49-GST as prey (Fig. 3H). […] As an additional test, we performed pull down analysis using peptides corresponding to the CW motif (KRRHPKKC, referred to as CW peptides) as bait and purified GST-SURF4^49-60 as prey (Fig. 3J). […] We then immobilized peptides corresponding to the first intracellular loop of Frizzled6 (VRRFRYPERPC, referred to as RRFR) ([27]) on beads.
The samples were centrifuged at 55,000 rpm in a TLS55 rotor in a Beckman ultracentrifuge for 2 hr at 4 °C.
After centrifugation, fractions were collected from the top to the bottom of the tube, and the top fraction was analyzed by SDS-PAGE and immunoblotting.
Isothermal titration calorimetry (ITC)
We utilized a commercial isothermal titration calorimeter (PEAQ-ITC system, MicroCal, Malvern Panalytical, United Kingdom) to perform titration experiments. In these experiments, a 500 µM solution of CW peptide in a diluted binding buffer (10 mM PBS, 0.5 mM HEPES, 6.3 mM sorbitol, 1.75 mM KOAc, 25 µM Mg(OAc)2 , 25 µM BSA, 0.003% Triton, pH 7.2) was loaded into the syringe of the ITC instrument and a 50 µM solution of GST -SURF4 (49-60) in the same buffer was in the calorimetric cell. […]

KRRHPKKC [CW peptides]
Kd: 2350 ± 90 nM
